This is an account of results in patent US20230373972A1, “PIPERAZINE DERIVATIVE, PREPARATION METHOD THEREFOR AND USE THEREOF” (Zhejiang Hisun Pharmaceutical Co., Ltd., priority 2020, published 2023).

Series [1] addresses T1, Native human Factor XIa protease (Homo sapiens, UniProt P03951).
T1 construct: The Native human Factor XIa protease was purchased from Abcam; purchased Abcam ab62411
Nature of the series: Inhibition of activity of Factor XIa protease (chromogenic substrate S-2366). In kind it is biochemical. The following applies: S-2366 1 mM, 37° C. 10 minutes, absorption at 405 nm. A digest of the protocol:
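Native human Factor XIa (final […]) in 100 mM Tris-HCl, 200 mM NaCl, 0.02% Tween 20, pH 7.4, preincubated with compound 5 min on ice; 1 mM S-2366 added, 10 min at 37° C. Absorbance at 405 nm versus 0.1% DMSO control; IC50 by nonlinear regression, compound 10,000 nM to […] final.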

The next series relates to human plasma. Nature of the series: In-vitro anticoagulation on human plasma (APTT kit, coagulation time). The following applies: concentration of the compound when the coagulation time (APTT) was prolonged twice.
Series [2] is described as follows: Pharmacokinetics in SD rat. In kind it is in vivo. The following applies: male, plasma, po, intragastric administration 10 mg/kg; for Cmax: read-out: Blood concentration Cmax; for AUC(0-t): read-out: Curve area AUC0-t; for half-life: read-out: Half-life period T1/2(h) (converted). As to the method: Taking a SD rat as a test animal, the SD rat was administrated with the compound of the present invention by intravenous injection and/or intragastric administration, and drug concentrations in plasma at different times were determined by a IC/MS/MS method to study pharmacokinetic characteristics of the compound of the present invention in the SD rat.
SD rats, male, 195 g to 235 g, 6 weeks old to 8 weeks old, purchased from Shanghai JieSiJie Laboratory Animal Co., Ltd.
Preparation of drug administrated by intravenous injection: a proper amount of compound to be tested was added to a proper amount of DMAC; (30% Soltol HS 15): Saline=10%: 10%: 80% (v/v/v), and shaken in a vortex manner, so as to prepare a final solution with a concentration of 0.5 mg/mL.
Preparation of drug administrated by intragastric administration: a proper amount of compound to be tested was added to a proper amount of DMAC: (30% Soltol HS 15): Saline=10%: 10%: 80% (v/v/v), and shaken in a vortex manner, so as to prepare a final solution with a concentration of 1 mg/mL.
SD rats were divided into an intravenous injection group of the compound to be tested (3 rats/group) and an intragastric administration group (3 rats/group) of the compound to be tested.
Intravenous injection group: the drug was administrated by dorsalis pedis vein injection (according to a dosage of 1 mg/kg and a volume of 2 mL/kg) without fasting.
Intragastric administration group: the drug was administrated by intragastric administration (according to a dosage of 10 mg/kg and a volume of 10 mL/kg) after fasting overnight, and food was taken 4 hours after administration.
Intravenous injection group: about 150 μL of blood was collected into an EDTA-K2 anticoagulant tube through a jugular vein 0.083 hour, 0.25 hour, 0.5 hour, 1 hour, 2 hours, 4 hours, 8 hours and 24 hours after administration.
Intragastric administration group; about 150 μL of blood was collected into an EDTA-K2 anticoagulant tube through a jugular vein 0.25 how, 0.5 hour, 1 hour, 2 hours, 4 hours, 8 hours and 24 hours after administration.
The blood sample was stored in wet ice first, and plasma was centrifugally separated within 15 minutes after sampling (centrifugation conditions: 2,000 g, 4° C., 5 minutes). The collected upper plasma was stored at −70° C. before analysis.
Contents of the compound to be tested in rat plasma after intravenous injection and intragastric administration were determined by LC-MS/MS.

T1 sequence (P03951 388-625 limits assumed): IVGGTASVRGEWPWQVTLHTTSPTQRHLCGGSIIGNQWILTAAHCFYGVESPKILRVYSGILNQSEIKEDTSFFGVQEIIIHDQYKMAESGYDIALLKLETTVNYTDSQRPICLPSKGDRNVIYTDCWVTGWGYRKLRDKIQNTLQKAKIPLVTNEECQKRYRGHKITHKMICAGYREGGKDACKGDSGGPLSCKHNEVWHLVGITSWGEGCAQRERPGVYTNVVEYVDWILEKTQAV
T1 sequence (P03951 19-387 partner limits assumed): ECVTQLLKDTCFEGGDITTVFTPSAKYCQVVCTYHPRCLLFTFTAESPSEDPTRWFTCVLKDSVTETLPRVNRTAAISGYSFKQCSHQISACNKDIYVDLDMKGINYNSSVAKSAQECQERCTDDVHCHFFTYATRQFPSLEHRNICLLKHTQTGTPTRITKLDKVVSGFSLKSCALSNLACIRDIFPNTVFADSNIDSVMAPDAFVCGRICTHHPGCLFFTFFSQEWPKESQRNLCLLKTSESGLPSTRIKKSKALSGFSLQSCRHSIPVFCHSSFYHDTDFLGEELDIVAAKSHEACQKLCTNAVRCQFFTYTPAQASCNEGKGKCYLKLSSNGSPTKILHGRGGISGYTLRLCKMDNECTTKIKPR

For orientation: IC50 means the concentration at which inhibition is half-maximal. A lower IC50 goes with greater potency. Consider `Cn1cc2cc(NC(=O)C(Cc3ccc(F)cc3)N3CC(=O)N(c4cc(Cl)ccc4-n4cc(Cl)nn4)CC3=O)ccc2n1` (stereo not shown) [Example 47, 2-(4-(5-Chloro-2-(4-chloro-1H-1,2,3-triazol-1-yl)phenyl)-2,5-dioxopiperazin-1-yl)-3-(4-fluorophenyl)-N-(2-methyl-2H-indazol-5-yl)propanamide], for which the IC50 in series [1] is 45.2 nM. Further, the “CT2” value with human plasma worked out at 9.3 µM. Further, in series [2], the Cmax is 2860 ± 268 ng/mL, the AUC(0-t) stood at 12200 ± 3190 ng·h/mL and the half-life is 2.13 ± 0.18 h.

`Cn1ccc(CC(C(=O)Nc2ccc3nn(C)cc3c2)N2CC(=O)N(c3cc(Cl)ccc3-n3cc(Cl)nn3)CC2=O)n1` (stereo not shown) [Example 111, 2-(4-(5-chloro-2-(4-chloro-1H-1,2,3-triazol-1-yl)phenyl)-2,5-dioxopiperazin-1-yl)-3-(1-methyl-1H-pyrazol-3-yl)-N-(2-methyl-2H-indazol-5-yl)propanamide] had an IC50 in series [1] of 45.3 nM. For the same molecule, in the series on human plasma, the “CT2” value is 19.6 µM. In addition, in series [2], the Cmax was 1420 ± 703 ng/mL, the AUC(0-t) is 2560 ± 409 ng·h/mL and the half-life is 2.37 ± 1.21 h.
